Experimental data from patent US20250127800A1, “PYRIMIDINE OR PYRIDINE DERIVATIVE AND MEDICINAL USE THEREOF” (SIGNET THERAPEUTICS INC., priority 2021, published 2025).

Tests used:
[1] = tested on: SNU-668 cells; test: Cell proliferation inhibition, SNU-668 (CELL TITER-GLO); type: cell-based; details: Homo sapiens, SNU668, 96 h; SNU-668, 4 days
Method: (§1) • a. SNU-668 cells (catalog number: 00668, KCLB) or NUGC4 cells (catalog number: 0834, JCRB) were allowed to grow to 70%-80% confluence, the supernatant of the culture medium was pipetitted off, rinsed once with PBS and then pipetitted off; • b. To a 10 cm dish was added 1 mL of 0.25% trypsin, votexed to homogenity and then place into incubator for digestion for 2-3 min; • c. The culture dish is removed from the incubator added with 2-3 mL complete culture medium to terminate the digestion, pipetitted into a 15 mL centrifuge tube, and then centrifuged in centrifuge at 1000 rpm for 5 minutes; • d. The supernatant was pipetitted off, and the cells were resuspended in 1 mL of complete culture medium, and then counted; • e. 1000 cells were plated into each well of 96-well plate, and then cultured overnight in a cell incubator, 2) Cell Administration with Compounds • a. Compounds to be tested were dissolved and votexed to homogeneity; • b. Each compound was serielly diluted in 1:3 ratio from 1 mM stock solution to 9 gradient concentrations; • c. The plate seeded with cells was taken out from the incubator, pipetitted off culture medium, and then added slowly in each well with 100 μL fresh culture medium by multi-channel pipette. Wells are labeled by corresponding compounds and concentrations, and then gently added with 100 μL compound-containing culture medium along the well wall by multi-channel pipette; • d. After the addition to all wells, the plate was gently shaken to allow homogeneous spread of the compound, and then put back to the incubator, with time recorded;
(§2) 4 days after the addition of compounds, the culture medium was removed and mixed at 100 μL from each well with cell titer-glo testing liquid in 1:1 ratio. The mixture was incubated with shaking at room temperature for 10 min and then counted with Plate reader.

[2] = tested on: activated YAP (non-p-YAP); test: Western Blot of activated YAP in DGC organoid model; type: cell-based; details: 48 hours, dose-dependent
Method: (§3) Experimental procedures: Organoids were amplified in 6-well plates (7 Matrigel aliquots per well) for 2-3 days prior to evaluation. After passage, 1000 cells were inoculated in 5 μl Matrigel aliquot into each well containing 100 μl 50% L-WRN medium in a 96-well plate. Organoids were cultured for 24 hours, followed by addition of the compounds. Compounds were dissolved in DMSO as stock solution (with a final concentration of […]), which was then diluted with DMSO to 1000× concentration of the testing concentration. Culture medium was added to the stock solution to dilute to the testing concentration. The diluted solution was added to the culture plate. Once compound was added, culture medium was no longer added, and no further compound added. After the organoids were cultured for a specified number of days, the effects of compounds were evaluated by the following three methods, each using DMSO as negative control.
(§4) 2. After cell culture in accordance with the above procedure and culture with compounds for 48 hours, the cells were lysed, and proteins were extracted and tested by Western Blot. After gel imaging, gray values of protein bands were analyzed to investigate the effects of the compounds on phosphorylated FAK and activated YAP in the organoid model. (For detailed methods, please refer to Haisheng Zhang, Cancer Discovery, 2020).

[3] = tested on: FAK (p-FAK 397); test: Western Blot of phosphorylated FAK in DGC organoid model; type: cell-based; details: 48 hours, dose-dependent
Method: as §3, §4

[4] = target: T1, FAK (Homo sapiens (Human), UniProt Q05397); test: Time-dependent FAK kinase inhibition activity test; type: biochemical
T1 sequence (Q05397 whole entry, species assumed): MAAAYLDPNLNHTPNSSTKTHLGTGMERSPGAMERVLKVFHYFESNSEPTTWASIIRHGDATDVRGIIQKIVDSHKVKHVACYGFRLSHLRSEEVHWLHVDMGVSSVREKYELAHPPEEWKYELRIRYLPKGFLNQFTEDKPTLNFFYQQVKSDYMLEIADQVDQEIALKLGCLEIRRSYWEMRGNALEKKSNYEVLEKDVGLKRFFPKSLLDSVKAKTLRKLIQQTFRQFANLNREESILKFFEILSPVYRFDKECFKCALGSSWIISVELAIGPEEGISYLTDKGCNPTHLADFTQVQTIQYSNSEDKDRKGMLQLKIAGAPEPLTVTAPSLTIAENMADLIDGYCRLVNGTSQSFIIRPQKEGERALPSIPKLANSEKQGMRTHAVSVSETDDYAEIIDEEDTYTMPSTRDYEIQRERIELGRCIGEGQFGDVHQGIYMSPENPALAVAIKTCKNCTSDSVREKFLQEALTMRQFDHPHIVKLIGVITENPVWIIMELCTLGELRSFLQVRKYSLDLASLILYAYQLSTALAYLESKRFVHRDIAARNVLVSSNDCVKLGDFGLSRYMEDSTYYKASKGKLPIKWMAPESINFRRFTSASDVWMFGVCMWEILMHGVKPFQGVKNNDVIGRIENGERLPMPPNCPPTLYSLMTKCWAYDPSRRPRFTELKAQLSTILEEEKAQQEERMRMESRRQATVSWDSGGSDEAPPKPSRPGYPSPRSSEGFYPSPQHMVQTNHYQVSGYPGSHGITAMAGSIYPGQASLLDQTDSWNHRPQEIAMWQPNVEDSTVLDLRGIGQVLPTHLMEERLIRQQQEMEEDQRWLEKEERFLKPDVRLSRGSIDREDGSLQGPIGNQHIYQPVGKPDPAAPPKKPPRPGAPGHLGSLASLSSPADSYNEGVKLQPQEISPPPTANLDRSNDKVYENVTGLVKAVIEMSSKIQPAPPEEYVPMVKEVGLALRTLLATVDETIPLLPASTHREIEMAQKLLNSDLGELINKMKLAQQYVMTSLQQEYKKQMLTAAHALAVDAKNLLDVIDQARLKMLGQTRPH

[5] = target: T1, FAK; test: In vitro enzymatic inhibitory activity, FAK kinase (HTRF KinEASE-TK); details: FAK kinase, enzyme pre-incubation 15 minutes at 25° C.
[6] = tested on: NUGC4 cells; test: Cell proliferation inhibition, NUGC4 (CELL TITER-GLO); type: cell-based; details: Homo sapiens, NUGC-4, 96 h; NUGC4, 4 days
Method: as §1, §2

[7] = target: YAP (non-p-YAP) (Homo sapiens (Human), UniProt P46937); test: Western blot of YAP activity in SNU-668 cell line model; type: cell-based; details: SNU668, 24 hours
Method: • a. SNU-668 cells (catalog number: 00668, KCLB) were allowed to grow to 70%-80% confluence, the supernatant of the culture medium was pipetitted off, rinsed once with PBS and then pipetitted off; • b. To a 10 cm dish was added 2 mL trypsin, and digested in an incubator for 3-5 min; • c. The culture dish is removed from the incubator added with 5 mL 1640 medium (containing 10% FBS) to terminate the digestion, pipetitted into a 15 mL centrifuge tube, and then centrifuged in centrifuge at 1000 rpm for 5 minutes; • d. The supernatant was pipetitted off, added with 5 mL 1640 medium (containing 10% FBS). the cells were resuspended thoroughly and mix well, then counted; • e. 1.5×10^5 cells were seeded into each well of 12-well plate, and then cultured in a cell incubator for 24 h. 2) Cell Treatment with Compounds • a. Stock solutions of the compounds to be tested (1 mM) were diluted in DMSO, and blown and nixed several times to homogeneity; • b. The plate seeded with cells was taken out from the incubator, gently added in wells with 1 ul 1 mM stocks (1000× diluted) along the well wall, and then gently shaken immediately to homogeneity; • c. After the addition to all wells, the plate was gently shaken to allow homogeneous spread of the compound, and then put back to the incubator, with time recorded; Samples were collected after 24 hours.
• a. […]

[8] = tested on: diffuse-type gastric cancer (DGC) organoid; test: Cell morphology in diffuse-type gastric cancer (DGC) organoid model; type: cell-based; details: 500 nM compound
Method: as §3
1. There was a difference in cell morphology between normal cells and the diffuse-type gastric cancer (DGC) organoid model. Normal organoids have hollow spheroid shape, while organoids of diffuse-type gastric cancer have solid grape-like irregular shape. Therefore, the observations of the effect of drugs on cell morphology may be one of the important characteristics for evaluating drug efficacy.

[9] = In vivo pharmacokinetic evaluation in SD rats, gavage; details: rat, plasma, po, male SD rats, 5 mg/kg
Method: Three male SD rats were administered with compounds in a single dose of 5 mg/kg or 3 mg/kg by gavage, and blood samples were collected before administration and at 0.25, 0.5, 1, 2, 4, 6, 8, and 24 h after administration.
Preparation of solutions of compounds to be dosed at 5 mg/kg: 5.5 mg compound (converted based on purity) was accurately weighed and added to 0.55 mL of DMSO. Clear solutions were obtained after stirring and sonication. 0.5 mL of each of the above solutions was added with 1 mL of Solutol, stirred for 1 minute; and then added with 8.5 mL of physiological saline and stirred for 1 minute, to obtain a clear solution at 0.5 mg/mL concentration.
Preparation of a solution of compounds to be dosed at 3 mg/kg: 3.6 mg compound (converted according to purity) was accurately weighed and added to 0.6 mL of DMSO. Clear solutions were obtained after stirring and sonication. 0.5 mL of each of the above solutions was added with 1 mL of Solutol and stirred for 1 minute; and then added with 8.5 mL of physiological saline and stirred for 1 minute, to obtain a clear solution at 0.3 mg/mL concentration.
Rats were administered the formulations prepared in step 2 by gavage at a dose of 10 mL/kg. The rats were fasted overnight before the administration and resumed feeding 4 hours after administration. Throughout the entire experiment, the animals were free to access drinking water.
The plasma concentration was measured using LC-MS/MS method.

Structure (SMILES)	IC50 [1] [nM]	inhibition of activated YAP (non-p-YAP) [2]	inhibition of phosphorylation of FAK (p-FAK 397) [3]	IC50 [5] [nM]	IC50 [6] [nM]	also measured
C=CC(=O)N1CCCC(c2cccc(NCc3ccc(Nc4ncc(C(F)(F)F)c(Nc5ccccc5C(=O)NC)n4)cc3)c2)C1 (centres unmarked) [Compound 6, 2-((2-((4-(((3-(1-acryloylpiperidin-3-yl)phenyl)amino)methyl)phenyl)amino)-5-(trifluoromethyl)pyrimidin-4-yl)amino)-N-methylbenzamide]	50	inhibit the activated YAP (non-p-YAP)	can inhibit the phosphorylation of FAK (p-FAK 397)	2.68	20	IC50 ([4]; enzyme pre-incubation 60 minutes at 25° C.): 0.662 nM; effective inhibition time on the kinase activity of FAK ([4]; pre-incubation 0, 15 and 60 minutes, compared to defactinib): longer effective inhibition time
COc1cc(C(=O)NC2CCN(C)CC2)c(F)cc1Nc1ncc(C(F)(F)F)c(Oc2cccc3c2C(=O)N(C)C3)n1 [IN10018, reference compound]	8400	–	–	–	3500	inhibition of YAP activity (non-p-YAP) [7]: no inhibiting effect on YAP activity
C=CC(=O)N1CCCC(c2cccc(NCc3ccc(Nc4ncc(C(F)(F)F)c(Nc5ccccc5C(=O)NOC)n4)cc3)c2)C1 (centres unmarked) [Compound 11, 2-((2-((4-(((3-(1-acryloylpiperidin-3-yl)phenyl)amino)methyl)phenyl)amino)-5-(trifluoromethyl)pyrimidin-4-yl)amino)-N-methoxybenzamide]	–	inhibit the activated YAP (non-p-YAP)	can inhibit the phosphorylation of FAK (p-FAK 397)	5.67	90	effect on cell morphology of DGC organoid [8]: significantly better effects than defactinib and IN-10018
CNC(=O)c1ccc(Nc2ncc(C(F)(F)F)c(NCc3nccnc3N(C)S(C)(=O)=O)n2)cc1 [Defactinib, reference compound]	–	–	–	–	1370	inhibition of YAP activity (non-p-YAP) [7]: no inhibiting effect on YAP activity; AUC(0-inf) [9]: 0.441 µM·h; AUC(0-t) [9]: 0.424 µM·h; Cmax [9]: 99.5 nM; Tmax [9]: 4 h; half-life [9]: 1.2 h
C=CC(=O)N1CCCC(c2cccc(NCc3ccc(Nc4ncc(C(F)(F)F)c(Nc5cccc(F)c5C(=O)NC)n4)cc3)c2)C1 (centres unmarked) [Compound 13, 2-((2-((4-(((3-(1-acryloylpiperidin-3-yl)phenyl)amino)methyl)phenyl)amino)-5-(trifluoromethyl)pyrimidin-4-yl)amino)-6-fluoro-N-methylbenzamide]	–	inhibit the activated YAP (non-p-YAP)	can inhibit the phosphorylation of FAK (p-FAK 397)	19.8	–	–
C=CC(=O)N1CCCC1c1ccc(NCc2ccc(Nc3ncc(C(F)(F)F)c(Nc4ccccc4C(=O)NC)n3)cc2)cc1 (centres unmarked) [Compound 9, 2-((2-((4-(((4-(1-acryloylpyrrolidin-2-yl)phenyl)amino)methyl)phenyl)amino)-5-(trifluoromethyl)pyrimidin-4-yl)amino)-N-methylbenzamide]	–	inhibit the activated YAP (non-p-YAP)	can inhibit the phosphorylation of FAK (p-FAK 397)	3.71	–	effect on cell morphology of DGC organoid [8]: significantly better effects than defactinib and IN-10018
C=CC(=O)N1CCCC(c2cccc(NCc3ccc(Nc4ncc(C(F)(F)F)c(Nc5ccccc5S(=O)(=O)NC(C)C)n4)cc3)c2)C1 (centres unmarked) [Compound 19, 2-((2-((4-(((3-(1-acryloylpiperidin-3-yl)phenyl)amino)methyl)phenyl)amino)-5-(trifluoromethyl)pyrimidin-4-yl)amino)-N-isopropylbenzenesulfonamide]	210	–	–	10.4	90	–
